Columns and labels:
Thioredoxin = Thioredoxin in cellular supernatant of human fibroblasts (ELISA), with or without UVA; type: cell-based; settings: for Thioredoxin rate in cellular supernatant: 10^−3%
Procedure: Normal human fibroblasts were tested to ascertain whether exposure to teprenone would stimulate thioredoxin expression in the cellular supernatants.
Human fibroblasts (FHN) in culture were irradiated with UVA (4 and 6 J/cm^2) or not irradiated (control). 24 h before the irradiation, these cells were grown without or with teprenone (GGA at 10^−3%). After irradiation, each case received the same medium (with or without GGA) as before irradiation. Incubations of 24 or 48 h with these fresh mediums were made. Thioredoxin in the cellular supernants was estimated using ELISA method. The results obtained are recapitulated in Table 3

catalase = experiment: Catalase activity in human skin explants after UVB (Clairborne-Aebi method); type: cell-based; settings: for protective effect on enzymatic activity of catalase: vs UVB; for catalase activity: after UVB 2 J/cm2
Procedure: Human skin explants obtained from a patient having undergone plastic surgery were cultured with or without teprenone or Trolox (positive control) for 48 hours then exposed to UV B radiation (2 J/cm^2). After irradiation, the explants were again cultured in fresh medium with or without teprenone or Trolox for 24 hours. Similars explants were also used in immunolabeling tests on heat shock proteins (HSP) and in the apoptosis study.
Catalase anti-oxidant activity was determined by the Clairborne-Aebi method. Hydrogen peroxide (H2O2) consumption is directly proportional to catalase activity. The consumption was determined by spectrophotometry at 240 nm

[1] = tested on: Normal human fibroblasts (NHF); experiment: Replicative senescence: variation of division number; type: cell-based; settings: 1 and 3 μM; long-term contact; 64th day to 95th day
Procedure: Replicative senescence reflects the aging of cells in cultures as they are serially sub-cultured. Normal human fibroblasts (NHF) were cultured in the absence or presence of 1 and 3 μM teprenone. At regular intervals, without awaiting confluence, the cells were counted, observed and sub-cultured at the same rate.

[2] = tested on: Normal human fibroblasts (FHN); experiment: Replicative capacity of serially sub-cultured fibroblasts; type: cell-based
Description: Normal human fibroblasts are able to divide a limited number of times: according to the literature, 30 times approximately. Progressively, the cells change morphology and become less and less suited to the mitosis: time between 2 mitoses lengthens, the cellular metabolism is very slowed down, the cells are known as senescent.
Normal human fibroblasts (FHN) are cultivated until the “12th cycle” in order to begin the tests with cells already part-time from the duration life (=12 cycles of replication on 30 cycles), they are then separate in 3 batches: The batch control, the batch treated daily by 1 μM of teprenone and the batch daily treated with 3 μM of teprenone.
Each plate contains ˜50 000 cells and the cells cultivated in medium DMEM, until confluency or until obtaining enough cells for the taking away of 50 000 cells necessary to the following cycle. At each time the cells are collected by trypsinisation, are counted, and aliquot of 50 000 cells seeded for the following cycle. This cycle is repeated until it is no more possible to obtain cellular multiplication.

IL8 = IL8 in supernatant of γ-irradiated NHEK cells (ELISA); type: cell-based, human; settings: for decrease of IL8: vs irradiated control; for expression of IL8: γ-irradiation 5 Gγ, 4 days
Procedure: In order to determine the action of teprenone as per the invention, the effect of GGA on the IL8 and VEGF expression was investigated in the supernatants of irradiated (with 5 Gy) NHEK cells. After γ-irradiation, NHEK cells are treated during 4 days with or without GGA at differents concentrations. The amount of IL8 and VEGF present in the cells supernatant is determined with ELISA method.

NHEK = NHEK cell re-colonization after scraping and irradiation; type: cell-based, human; settings: 3 · 10^−5%
Procedure: NHEK were inoculated into Labtech microplates and cultured to post-confluence with or without teprenone. The cultures were then mechanically scraped and exposed to radiation at a dose level of 0, 5 or 10 Gy. The percentage area re-colonized post-irradiation was determined.

[3] = tested on: human primary keratinocytes; experiment: Gene expression profile by DNA array (CodeLink Whole Genome bioarray); type: cell-based
Procedure: Human primary keratinocyte cultures were prepared and incubated in the presence or absence of teprenone. The culture supernatants were withdrawn and the cell monolayers frozen at −80° C. The un-thawed monolayers were exposed to lysis buffer and the cell RNA extracted using a commercially-available kit (Roche kit V6: total RNA extraction). Solvent controls underwent the same extraction process in parallel. The expression profiles of the gene sequences were determined using a CodeLink Whole Genome bioarray for each sample of purified RNA. The values obtained were normalized relative to the controls.

CC(=O)CCC=C(C)CCC=C(C)CCC=C(C)CCC=C(C)C [Teprenone, 6,10,14,18-tetramethyl-5,9,13-nonadecatetren-2-one]
Thioredoxin rate in cellular supernatant (Thioredoxin; UVA 4 J/cm^2, incubation 24 h): 24.3 ng/mg protein | Thioredoxin rate in cellular supernatant (Thioredoxin; UVA 4 J/cm^2, incubation 48 h): 32.4 ng/mg protein | Thioredoxin rate in cellular supernatant (Thioredoxin; UVA 6 J/cm^2, incubation 24 h): 43.7 ng/mg protein | Thioredoxin rate in cellular supernatant (Thioredoxin; UVA 6 J/cm^2, incubation 48 h): 59.2 ng/mg protein | Thioredoxin rate in cellular supernatant (Thioredoxin; not irradiated, incubation 24 h): 11.6 ng/mg protein | Thioredoxin rate in cellular supernatant (Thioredoxin; not irradiated, incubation 48 h): 28.5 ng/mg protein | increase of thioredoxin rate in the cellular supernatant (Thioredoxin; 24 h incubation, 4 J/cm^2): +30% | increase of thioredoxin rate in the cellular supernatant (Thioredoxin; 24 h incubation, 6 J/cm^2): +40% | increase of thioredoxin rate in the cellular supernatant (Thioredoxin; 24 h incubation, without irradiation): +60% | increase of thioredoxin rate in the cellular supernatant (Thioredoxin; 48 h incubation, 4 J/cm^2): +50% | increase of thioredoxin rate in the cellular supernatant (Thioredoxin; 48 h incubation, 6 J/cm^2): 40% | increase of thioredoxin rate in the cellular supernatant (Thioredoxin; 48 h incubation, non irradiated): +150% | protective effect on enzymatic activity of catalase (catalase; 0.05 mM): +40% | protective effect on enzymatic activity of catalase (catalase; 0.1 mM): +45% | catalase activity (catalase; 0.05 mM): 125 UI/mg of protein | catalase activity (catalase; 0.1 mM): 130 UI/mg of protein | capacities of divisions of the cells [1]: level higher compared to the control | cycle until which the fibroblasts remained more active ([2]; 1 μM): 22 | entry into marked senescence, later than the controls ([2]; 1 μM): 44 days | Nb cells (×10^3) ([2]; 1 μM, cycle 13 (7 d)): 204 ×10^3 | Nb cells (×10^3) ([2]; 1 μM, cycle 14 (8 d)): 214 ×10^3 | Nb cells (×10^3) ([2]; 1 μM, cycle 15 (11 d)): 199 ×10^3 | Nb cells (×10^3) ([2]; 1 μM, cycle 16 (14 d)): 186 ×10^3 | Nb cells (×10^3) ([2]; 1 μM, cycle 17 (13 d)): 164 ×10^3 | Nb cells (×10^3) ([2]; 1 μM, cycle 18 (18 d)): 197 ×10^3 | Nb cells (×10^3) ([2]; 1 μM, cycle 19 (17 ds)): 185 ×10^3 | Nb cells (×10^3) ([2]; 1 μM, cycle 20 (14 d)): 124 ×10^3 | Replicative capac vs control ([2]; 1 μM, cycle 20 (14 d)): +13 | Nb cells (×10^3) ([2]; 1 μM, cycle 21 (22 d)): 130 ×10^3 | Replicative capac vs control ([2]; 1 μM, cycle 21 (22 d)): +38 | Nb cells (×10^3) ([2]; 1 μM, cycle 22 (20 d)): 146 ×10^3 | Replicative capac vs control ([2]; 1 μM, cycle 22 (20 d)): +117 | Nb cells (×10^3) ([2]; 1 μM, cycle 23 (36 d)): 105 ×10^3 | Replicative capac vs control ([2]; 1 μM, cycle 23 (36 d)): +25 | Nb cells (×10^3) ([2]; 1 μM, cycle 24 (28 d)): 66 ×10^3 | Replicative capac vs control ([2]; 1 μM, cycle 24 (28 d)): ns | Nb cells (×10^3) ([2]; 1 μM, cycle 25 (77 d)): 59 ×10^3 | Replicative capac vs control ([2]; 1 μM, cycle 25 (77 d)): ns | cycle until which the fibroblasts retained their replicative potential ([2]; 3 μM): 24 | fibroblast lifetime extended with no impairment of replicative capacity ([2]; 3 μM): 100 days | replicative potential retained, later than the controls ([2]; 3 μM): 100 days | activity of treated cells vs control cells after replicative potential began to subside ([2]; 3 μM, after cycle 24): almost two-fold more active than the control cells | Nb cells (×10^3) ([2]; 3 μM, cycle 13 (7 d)): 213 ×10^3 | Nb cells (×10^3) ([2]; 3 μM, cycle 14 (8 d)): 195 ×10^3 | Nb cells (×10^3) ([2]; 3 μM, cycle 15 (11 d)): 140 ×10^3 | Nb cells (×10^3) ([2]; 3 μM, cycle 16 (14 d)): 167 ×10^3 | Nb cells (×10^3) ([2]; 3 μM, cycle 17 (13 d)): 166 ×10^3 | Nb cells (×10^3) ([2]; 3 μM, cycle 18 (18 d)): 192 ×10^3 | Nb cells (×10^3) ([2]; 3 μM, cycle 19 (17 ds)): 198 ×10^3 | Nb cells (×10^3) ([2]; 3 μM, cycle 20 (14 d)): 145 ×10^3 | Replicative capac vs control ([2]; 3 μM, cycle 20 (14 d)): +33 | Nb cells (×10^3) ([2]; 3 μM, cycle 21 (22 d)): 154 ×10^3 | Replicative capac vs control ([2]; 3 μM, cycle 21 (22 d)): +64 | Nb cells (×10^3) ([2]; 3 μM, cycle 22 (20 d)): 157 ×10^3 | Replicative capac vs control ([2]; 3 μM, cycle 22 (20 d)): +134 | Nb cells (×10^3) ([2]; 3 μM, cycle 23 (36 d)): 204 ×10^3 | Replicative capac vs control ([2]; 3 μM, cycle 23 (36 d)): +99 | Nb cells (×10^3) ([2]; 3 μM, cycle 24 (28 d)): 115 ×10^3 | Replicative capac vs control ([2]; 3 μM, cycle 24 (28 d)): +79 | Nb cells (×10^3) ([2]; 3 μM, cycle 25 (77 d)): 95 ×10^3 | Replicative capac vs control ([2]; 3 μM, cycle 25 (77 d)): 82 | decrease of IL8 (IL8; 1.10^−4%): −67% | decrease of IL8 (IL8; 3.10^−5%): −50% | expression of IL8 (IL8; 1 · 10^−4%): 2.12 pg/10^5 cells | expression of IL8 (IL8; 3 · 10^−5%): 3.25 pg/10^5 cells | % on NHEK re-colonization 24 hours after (NHEK; 5 Gγ): faster re-colonization | % on NHEK re-colonization 24 hours after (NHEK; 5 Gγ, listed as GGA): 80% | % on NHEK re-colonization 24 hours after (NHEK; 10 Gγ): 60% | % on NHEK re-colonization 24 hours after (NHEK; not irradiated): 62% | expression of CBX5/HP1 ([3]; 24 hour period): jointly activated | expression of CDK2 ([3]; 24 hour period): jointly activated | expression of ELAVL1 ([3]; 24 hour period): activation | expression of ERBIN gene ([3]; 24 hour period): up-regulated | expression of PTPRF-interacting gene ([3]; 24 hour period): up-regulated | expression of SERTAD3 ([3]; 24 hour period): activated | expression of gene SCLY ([3]; 24 hour period): significantly up-regulated | expression of gene for heat shock protein HSP 27 ([3]; 24 hour period): induction | expression of gene for heat shock protein HSP B3 ([3]; 24 hour period): induction | genes activated, effect on cell lipid content ([3]; cholesterol efflux and fatty acid synthesis): 6 genes

Reference: patent US20090214607A1, “Topical use of teprenone” (SEDERMA, priority 2005, published 2009)
